This is an account of results in ChEMBL document CHEMBL5360559, “Machine learning- and structure-based discovery of a novel chemotype as FXR agonists for potential treatment of nonalcoholic fatty liver disease” (Eur J Med Chem, 2023).

For data set [1], the system named is HepG2. Nature of the data set: Induction of dyslipidemia in human HepG2 cells assessed as downregulation of ApoC3 gene expression at 10 uM by qPCR analysis. It is filed as toxicity, cell-based. The following applies: hepg2, 10 µM.
The test system of data set [2] is HepG2. Kind of data set: Induction of dyslipidemia in human HepG2 cells assessed as downregulation of ApoA1 gene expression at 10 uM by qPCR analysis. Type of data set: toxicity, cell-based. The following applies: hepg2, 10 µM. (In general: Real-time PCR tracks product formation cycle by cycle.)

Consider `CC[C@H]1[C@@H](O)[C@@H]2[C@H](CC[C@]3(C)[C@@H]([C@H](C)CCC(=O)O)CC[C@@H]23)[C@@]2(C)CC[C@@H](O)C[C@@H]12` [OBETICHOLIC ACID], for which the Activity entry in the data set on HepG2 [1] and with HepG2 [2] was “Toxic” throughout.
